Results reported in patent publication US20260234164A1, “BIPHENYL COMPOUND AS IMMUNOMODULATOR, PREPARATION METHOD THEREFOR AND USE THEREOF” (SHENZHEN CHIPSCREEN BIOSCIENCES CO., LTD., priority 2021, published 2026).

Tested on: PD-1/PD-L1-mediated T cell activation inhibitory signal
Assay: CHO-PD-L1-CD3L / Jurkat-PD-1-NFAT co-culture luciferase reporter assay
Type: cell-based
Details: Homo sapiens, co-culture 6 h, read-out: EC50 blocking PD-1/PD-L1-mediated T cell activation inhibitory signal
Experimental: In order to detect the effect of the interaction between PD-1 and PD-L1 on T cell activation signals in the immune response, CHO-PD-L1-CD3L cells stably expressing human PD-L1 molecules and anti-CD3 single-chain antibody (ScFv) and Jurkat-PD-1-NFAT cells stably expressing human PD-1 molecule and NFAT reporter gene were constructed. When the two kinds of cells were co-incubated, the binding of anti-CD3ScFv on the surface of CHO cells and the membrane CD3 molecules of Jurkat cells would transmit an activation signal to Jurkat cells, but simultaneously, the binding of PD-L1 on the surface of CHO cells and PD-1 molecules on the surface of Jurkat cells would transmit an inhibitory signal inward to prevent expression of the luciferase reporter gene. When immune checkpoint antibodies or small molecule inhibitors were added, the binding of PD-1 and PD-L1 was blocked, the NFAT pathway activated by T cell activation signal mediated by cross-linking of CD3ScFv antibody and CD3 was no longer affected by the inhibitory signal, and the downstream luciferase reporter gene started to be expressed. A chemiluminescent signal proportional to reporter gene activation was detected by adding a catalytic substrate.
CHO-PD-L1-CD3L cells expressing human PD-L1 molecule and anti-CD3 single-chain antibody (ScFv) and Jurkat-PD-1-NFAT cells stably expressing human PD-1 molecule and NFAT reporter gene were independently constructed and provided by Dr. Chen Bo (KeyMed Bioscience (Chengdu) Co., Ltd.). Puromycin (Cat #540411) and Hygromycin B (Cat #V900372) for stable culture of transfected cells were purchased from Sigma, PMA (Cat #P1585) was purchased from Sigma, anti-human PD-L1 antibody (Cat #GMP-A066) was purchased from Novoprotein Company. Luciferase substrate solution (Cat #E6485) and luciferase-specific cell lysis solution 5× (Cat #E1531) were purchased from Promega. Fluorescence detection instrument Tecan (Spark 10M) was purchased from Switzerland Tecan Company.
(1) The day before the experiment, 100 μL of CHO-PD-L1-CD3L cells were inoculated in each well of a 96-well cell culture plate (about 4×10^4 cells/well) with a medium of DMEM/F12 containing 10% FBS, 8 μg/mL puromycin and 200 μg/mL hygromycin B, and cultured overnight at 37° C.
(2) The test compounds were diluted with 0.1% PBST into different concentration gradients, added into 96-well plates, and pre-incubated for 30 min. Jurkat-PD-1-NFAT cell count was adjusted to 2×10^5 cells/mL with the RPMI 1640 complete medium containing 10% FBS, […]8 μg/mL puromycin and 200 μg/mL hygromycin B. 100 ng/mL PMA (the stock solution was prepared with DMSO to a concentration of 10 mg/mL) was added to amplify T cell activation signal. 100 μL of the above Jurkat-PD-1-NFAT cells was added to each well of the 96-well plate for co-culture.
(3) When detecting the reaction, a control group was provided, including a solvent control without adding test compounds and a positive control with addition of anti-human PD-1 antibody as the experimental system. All detections were performed with duplicates.
(4) After continuous incubation at 37° C. for 6 h, 40 μL of 5× cell lysate was directly added, and mixed well. The plate was placed at room temperature for 10 min to completely lyse the cells. 50 μL of the lysed cell solution was transferred to a fluorescence detection plate, and added with 30 μL of luciferase substrate solution. The chemiluminescence detection program on the fluorescence detector was immediately selected for detection.
(5) The inhibition rate of T cell activation signal at the cellular level of the test compounds was calculated as follows: Inhibition rate of T cell activation signal (%)=(the original value of chemiluminescence in the detection well−solvent control)/(the highest original value of chemiluminescence detected in the compound detection well−solvent control)×100%. […]

Compound | EC50 [nM]
[2H]C([2H])([2H])n1c(C(=O)Nc2cccc(-c3cccc(NC(=O)c4nc5c(n4C([2H])([2H])[2H])CCN(CCC46CCC(C(=O)O)(CC4)C6)C5)c3Cl)c2F)nc2c1CCN(CCC13CCC(COC)(CC1)C3)C2 (single isomer, unassigned) [Compound I-8, 4-(2-(2-((2-chloro-2′-fluoro-3′-(5-(2-(4-(methoxymethyl)bicyclo[2.2.1]heptane-1-yl)ethyl)-1-(methyl-d3)-4,5,6,7-tetrahydro-1H-imidazo[4,5-c]pyridine-2-carboxamido)-[1,1′-biphenyl]-3-yl)carbamoyl)-1-(methyl-d3)-1,4,6,7-tetrahydro-5H-imidazo[4,5-c]pyridin-5-yl)ethyl)bicyclo[2.2.1]heptane-1-carboxylic acid] | 45.1
[2H]C([2H])([2H])OCC12CCC(CCN3CCc4c(nc(C(=O)Nc5cccc(-c6cccc(NC(=O)c7nc8c(n7C([2H])([2H])[2H])CCN(CCC79CCC(C(=O)O)(CC7)C9)C8)c6Cl)c5C)n4C([2H])([2H])[2H])C3)(CC1)C2 [Compound I-9, 4-(2-(2-((2-chloro-3′-(5-(2-(4-((methoxy-d3)methyl)bicyclo[2.2.1]heptane-1-yl)ethyl)-1-(methyl-d3)-4,5,6,7-tetrahydro-1H-imidazo[4,5-c]pyridine-2-carboxamido)-2′-methyl-[1,1′-biphenyl]-3-yl)carbamoyl)-1-(methyl-d3)-1,4,6,7-tetrahydro-5H-imidazo[4,5-c]pyridin-5-yl)ethyl)bicyclo[2.2.1]heptane-1-carboxylic acid] | 28.1
[2H]C([2H])([2H])OCC12CCC(CCN3CCc4c(nc(C(=O)Nc5cccc(-c6cccc(NC(=O)c7nc8c(n7C([2H])([2H])[2H])CCN(CCC79CCC(C(=O)O)(CC7)C9)C8)c6Cl)c5Cl)n4C([2H])([2H])[2H])C3)(CC1)C2 [Compound I-5, 4-(2-(2-((2,2′-dichloro-3′-(5-(2-(4-((methoxy-d3)methyl)bicyclo[2.2.1]heptane-1-yl)ethyl)-1-(methyl-d3)-4,5,6,7-tetrahydro-1H-imidazo[4,5-c]pyridine-2-carboxamido)-[1,1′-biphenyl]-3-yl)carbamoyl)-1-(methyl-d3)-1,4,6,7-tetrahydro-5H-imidazo[4,5-c]pyridin-5-yl)ethyl)bicyclo[2.2.1]heptane-1-carboxylic acid] | 12.5
[2H]C([2H])([2H])OCC12CCC(CCN3CCc4c(nc(C(=O)Nc5cccc(-c6cccc(NC(=O)c7nc8c(n7C([2H])([2H])[2H])CCN(CCC79CCC(C(=O)O)(CC7)C9)C8)c6C)c5Cl)n4C([2H])([2H])[2H])C3)(CC1)C2 [Compound I-11, 4-(2-(2-((2′-chloro-3′-(5-(2-(4-((methoxy-d3)methyl)bicyclo[2.2.1]heptane-1-yl)ethyl)-1-(methyl-d3)-4,5,6,7-tetrahydro-1H-imidazo[4,5-c]pyridine-2-carboxamido)-2-methyl-[1,1′-biphenyl]-3-yl)carbamoyl)-1-(methyl-d3)-1,4,6,7-tetrahydro-5H-imidazo[4,5-c]pyridin-5-yl)ethyl)bicyclo[2.2.1]heptane-1-carboxylic acid] | 58.4
